Calls of active or inactive are those of the source. The rule behind the calls is not given here.
Legend:
Format in all cases: cell-based
MS-G2 [1] = assay: Inhibition of Hepatitis B virus E antigen activity in human MS-G2 cells at 5 ug/mL
MS-G2 [2] = assay: Inhibition of Hepatitis B virus E antigen activity in human MS-G2 cells at 10 ug/mL
[3] = Cytotoxicity against human MS-G2 cells at 20 ug/mL

**Q.** With `COc1cc(O)c(Cc2ccc(O)cc2)c2c1-c1ccc(O)c(CC=C(C)C)c1CC2` [SINENSOL C] as the molecule, how does the Activity (MS-G2 [1]) read?
**A.** Its Activity is “inactive”.

**Q.** What about the Activity (MS-G2 [2]) of the same molecule?
**A.** The Activity was “inactive”.

**Q.** And the Activity [3]?
**A.** Its Activity is “Active”.

**Q.** For `COc1cc(O)c2c(c1Cc1ccc(O)cc1)CCc1c-2ccc2c1CC(C(C)(C)O)O2` (stereo not drawn) [SINENSOL E], which Activity (MS-G2 [1]) is on record?
**A.** The Activity was “inactive”.

**Q.** And the Activity (MS-G2 [2])?
**A.** Its Activity is “inactive”.

**Q.** And the Activity [3]?
**A.** Its Activity is “Active”.

**Q.** Which results are given for `COc1cc(O)c2c(c1Cc1ccc(O)cc1)CCc1c-2ccc2c1C=CC(C)(C)O2` [SINENSOL D]?
**A.** Activity (MS-G2 [1]): inactive; Activity (MS-G2 [2]): inactive; Activity [3]: Active

**Q.** Which results are given for `COc1cc(OC)c2c(c1Cc1ccc(O)cc1)CCc1c-2ccc(O)c1CC=C(C)C` [SINENSOL B]?
**A.** Activity (MS-G2 [1]): inactive; Activity (MS-G2 [2]): inactive; Activity [3]: Active

**Q.** What does the source list for `COc1cc(O)c2c(c1Cc1ccc(O)cc1)CCc1c-2cc(Cc2ccc(O)cc2)c(O)c1CC=C(C)C` [SINENSOL F]?
**A.** Activity (MS-G2 [1]): inactive; Activity (MS-G2 [2]): inactive; Activity [3]: Active

**Q.** Which Activity (MS-G2 [1]) does the source give for `COc1cc(OC)c2c(c1Cc1ccc(O)cc1)CCc1cc(O)ccc1-2` [SINENSOL A] here?
**A.** The Activity was “inactive”.

**Q.** What about the Activity (MS-G2 [2]) of the same molecule?
**A.** Its Activity is “inactive”.

**Q.** And the Activity [3]?
**A.** The Activity was “Active”.

From ChEMBL document CHEMBL1155636, “Dihydrophenanthrenes from Spiranthes sinensis” (J Nat Prod, 2000)
